Assays:
[1] = system: GT1b/3a NS5B chimeric replicon; assay: HCV replicon assay, GT1b/3a NS5B chimeric replicon, transient transfection; assay type: cell-based, hepatitis C virus; conditions: Hepatitis C virus, Huh-7, 72 h, read-out: GT3a EC50, GT1b/3a NS5B chimeric replicon, Huh-7 cells, luciferase, 72 hours
Experimental: (§1) The antiviral activity of the test compounds was assessed in the wild type GT1b (Con1), GT1a (H77), and GT1b/2a, GT1b/3a, GT1b/4a and GT1b/5a NS5B chimeric replicons, as well as the NS5B mutant replicons listed in Table 2a and 2b.
(§2) To generate HCV NS5B chimeric replicons, the GT1 b replicon was used as a backbone with the NS5B gene replaced with the NS5B gene of GT2a, GT3a, GT4a and GT5a derived from clinical isolates. These NS5B genes were cloned into the GT1b backbone and were confirmed by sequencing.
(§3) All the replicon assays were luciferase based in Huh-7 cells, either in stable format (GT1b and GT1a) or by transient transfection by electroporation (chimeric and mutant replicons). For a standard HCV replicon assay, stable or transiently transfected Huh-7 cells were seeded in 96-well plates (5,000 cells/well), cultured in DMEM containing 10% FBS, and incubated at 37° C., 5% CO2. On the following day, test compounds were diluted with assay media and added to the appropriate wells (final DMSO concentration in the cell culture medium was 0.5%). Assay reference positive control was included in each run to ensure assay performance. Cells were incubated at 37° C., 5% CO2 for 72 hours, at which time the cells were still sub-confluent. The antiviral activity was determined by measuring replicon reporter firefly luciferase activity using Bright Glo kit in accordance with the protocol provided by the supplier (Promega). The toxicity of the test compounds was assessed by CytoTox-1 cell proliferation assay (Promega). The half maximal effective concentration (EC50) and the half maximal toxic concentration (TC50) values were calculated using the GraphPad Prism software.

Huh-7 cells = assay: Toxicity by CytoTox-1 cell proliferation assay (TC50) and selectivity index; assay type: cell-based; conditions: TC50 by CytoTox-1 cell proliferation assay over replicon EC50, Huh-7 cells
Experimental: as §3

[2] = system: GT1b/2a NS5B chimeric replicon; assay: HCV replicon assay, GT1b/2a NS5B chimeric replicon, transient transfection; assay type: cell-based, hepatitis C virus; conditions: Hepatitis C virus, Huh-7, 72 h, read-out: GT2a EC50, GT1b/2a NS5B chimeric replicon, Huh-7 cells, luciferase, 72 hours
Experimental: as §1, §2, §3

[3] = system: GT1b/4a NS5B chimeric replicon; assay: HCV replicon assay, GT1b/4a NS5B chimeric replicon, transient transfection; assay type: cell-based, hepatitis C virus; conditions: Hepatitis C virus, Huh-7, 72 h, read-out: GT4a EC50, GT1b/4a NS5B chimeric replicon, Huh-7 cells, luciferase, 72 hours
Experimental: as §1, §2, §3

[4] = system: GT1b/5a NS5B chimeric replicon; assay: HCV replicon assay, GT1b/5a NS5B chimeric replicon, transient transfection; assay type: cell-based, hepatitis C virus; conditions: Hepatitis C virus, Huh-7, 72 h, read-out: GT5a EC50, GT1b/5a NS5B chimeric replicon, Huh-7 cells, luciferase, 72 hours
Experimental: as §1, §2, §3

[5] = system: GT3a S282T NS5B mutant replicon; assay: HCV NS5B mutant replicon assay, GT3a S282T; assay type: cell-based; conditions: Hepatitis C virus, Huh-7, 72 h, read-out: GT3a S282T EC50
Experimental: as §1, §2
(§4) The HCV replicon mutants were generated by site-directed mutagenesis (SDM). The SDM was performed by PCR and the PCR fragments were inserted into the backbone replicon construct. The inserted PCR fragments and the mutants were confirmed by sequencing.
as §3

[6] = system: GT1b S282T NS5B mutant replicon; assay: HCV NS5B mutant replicon assay, GT1b S282T; assay type: cell-based; conditions: Hepatitis C virus, Huh-7, 72 h, read-out: GT1b S282T EC50
Experimental: as §1, §4, §3

| SMILES | EC50 [1] | Selectivity Index (TC50/EC50) (Huh-7 cells) | EC50 [2] | EC50 [3] | EC50 [4] | EC50 [5] | EC50 [6] |
| --- | --- | --- | --- | --- | --- | --- | --- |
| CC(C)(C)SSc1ccccc1CCOP1(=O)OC[C@H]2O[C@@H](n3ccc(=O)[nH]c3=O)[C@](C)(F)[C@@H]2O1 (single isomer, unassigned) [Compound 7A] | 8 nM | >500 | 3 nM | 5 nM | 8 nM | 44 nM | 65 nM |
| CC(C)OC(=O)[C@H](C)N[P@](=O)(OC[C@H]1O[C@@H](n2ccc(=O)[nH]c2=O)[C@](C)(F)[C@@H]1O)Oc1ccccc1 [sofosbuvir, reference compound] | 90 to 95 nM | >100 | 36 nM | 54 nM | 65 nM | 84 to 572 nM | 446 to 554 nM |

Source: US20180346505A1, “MONONUCLEOTIDES HAVING A BIOREVERSIBLE DISULFIDE GROUP” (priority 2014, published 2018)
